According to patent US6787566B2, “Breakers of advanced glycation endproducts” (City of Hope, priority 1999, dated 2004):
“Also recorded” adds a separate entry of the source.

Key:
Assay type in all cases: biochemical
[1] = biological target: T1, cross-linked collagen-AGE-BSA (Rattus norvegicus, UniProt P02454+P02466); test: AGE-BSA-collagen ELISA: cleavage of glycated BSA cross-linked to collagen; details: for AGE-breaking activity (cleavage of cross-linked collagen-AGE-BSA), in words: 0.1-10 mM final concentration, FIGS. 1A and 1C; for Concentration dependence of AGE-BSA-collagen crosslink breaking, in words: FIGS. 1A-C; for Overall AGE-breaking property, in words: overall judgement of the patent's tests
T1 construct: purchased Biocoat (Collaborative Research, Bedford, Mass.) for the collagen-coated plates; Sigma Chemical co. for bovine serum albumin
Method: In vitro evaluation of the ability of the AGE-breaker compounds to cleave and break cross-linking of glycated BSA (AGE-BSA) (prepared as described (Rahbar et al., 1999)) to the rat-tail-tendon-collagen was by a special ELISA (Vasan et al., 1996). The rat-tail-tendon-collagen coated plates were first blocked first with 300 μL of Superblock blocking buffer (Pierce Chemicals, Rockford, Ill.) for one hour. The blocking solution was removed from the wells by washing the plates twice with PBS-0.05% Tween 20 (PBS-T) using a Dynatech ELISA-plate washer. Cross-linking of various concentrations of AGE-BSA (0, 0.01, 0.05, 0.1, 0.25, 0.50, and 1.0 μg per well) to rat-tail-collagen coated plates was performed without the testing compound, and the plates were incubated for 5 hours at 37° C. After washing the wells three times with PBS-T to remove the unattached AGE-BSA, test concentrations of the compound (50 μL/well) dissolved in PBS were added to wells in triplicate and incubation continued at 37° C. overnight. After washing with PBS-T, the amount of BSA remaining attached to the tail collagen plate was then quantified by addition of rabbit anti-BSA polyclonal antibodies (50 μL/well) for 1 hour at 37° C. The wells were then washed three times with PBS-T and developed with the chromogenic substrate ABTS (100 μL/well). Absorbance was measured at 410 nm in microplate reader (BioRad, Hercules, Calif.).
The percentage breaking activity is calculated by the following formula: 100×[(A410, PBS control)−(A410, AGE-breaker compound)]/[A410, PBS control].

[2] = biological target: T2, AGE cross-links in tail tendon collagen of diabetic rats (Rattus norvegicus, UniProt P02454+P02466); test: Tendon collagen solubility in weak acid after in vitro treatment; details: for Acid Solubility Test (% increase in solubility): relative to untreated collagen of diabetic rats
T2 construct: collagen was isolated from the tail tendon of diabetic and normal controls; from tissue; host or cells: tail tendon of streptozotocin-diabetic male Sprague-Dawley rats
Method: For this study, diabetes was first induced in male Sprague-Dawley rats (Charles River, Wilmington, Mass.) weighing about 150-175 g by injection of streptozotocin (65 mg/kg, i.p.). […] Tail tendons were dissected free of adhering tissues, washed thoroughly in PBS containing protease inhibitors (1 mM each of EDTA, PMSF, iodoacetamide and benzamidine hydrochloride), patted dry onto a paper towel, rolled into a ball, freeze dried, and stored at −20° C. in sealed containers until used.
Representative samples of tail tendon collagen were pulled from its bulk and were cut approximately 20-25 mm in size. The samples were then placed inside 1.5 mL microfuge tubes and suspended with 1 mL of the desired concentration of the AGE-breaker compound in PBS buffer (pH 7.4) containing 0.02 g/L NaN3. Untreated control tubes include tail tendon collagen and PBS buffer only. The tubes were incubated at 37° C. for 24 hours. After incubation, the tubes were centrifuged at 10,000 rpm and the supernatants discarded. The collagen samples were rinsed with PBS, vortexed thoroughly, centrifuged briefly, and the supernatant discarded. This rinsing was repeated twice. On final rinse, the supernatant was discarded and the tubes inverted for one minute for the samples to air dry. These collagen samples were used immediately in the acid solubility and digestion studies.
For determination of the amount of acid-insoluble collagen in samples treated and untreated with the AGE-breaker compound, 5 mg aliquots of dried tail-tendon collagen from diabetic and non-diabetic rats, all in duplicates, were added to 2 mL of 0.05 M acetic acid and stirred at 4° C. for 24 hours. The mixture was homogenized in a polytron homogenizer and stirred for an additional 24 hours at 4° C. The suspension was then centrifuged at 9000×g for 60 minutes at 4° C. The collagen in the clear supernatant was defined as the acid soluble collagen, and the gel-like pellet as the acid insoluble collagen.

[3] = biological target: T2, AGE cross-links in tail tendon collagen of diabetic rats; test: Papain digestibility assay, collagen-linked fluorescence; details: for Papain digestion Assay (% decrease in fluorescence): relative to untreated collagen of diabetic rats
Method: For this study, diabetes was first induced in male Sprague-Dawley rats (Charles River, Wilmington, Mass.) weighing about 150-175 g by injection of streptozotocin (65 mg/kg, i.p.). […] Thirty-two weeks later, the rats are sacrificed and collagen was isolated from the tail tendon of diabetic and normal controls as described by Kochakian et al. (1996). Tail tendons were dissected free of adhering tissues, washed thoroughly in PBS containing protease inhibitors (1 mM each of EDTA, PMSF, iodoacetamide and benzamidine hydrochloride), patted dry onto a paper towel, rolled into a ball, freeze dried, and stored at -20° C. in sealed containers until used. Representative samples of tail tendon collagen were pulled from its bulk and were cut approximately 20-25 mm in size. […] Untreated control tubes include tail tendon collagen and PBS buffer only. The tubes were incubated at 37° C. for 24 hours. After incubation, the tubes were centrifuged at 10,000 rpm and the supernatants discarded. The collagen samples were rinsed with PBS, vortexed thoroughly, centrifuged briefly, and the supernatant discarded. This rinsing was repeated twice. On final rinse, the supernatant was discarded and the tubes inverted for one minute for the samples to air dry. These collagen samples were used immediately in the acid solubility and digestion studies. […] Digests were centrifuged at 10,000 rpm for 60 minutes at 4° C., and the supernatant separated from the pellet. […] Aliquots of the supernatant digests were also subjected to acid hydrolysis followed by hydroxyproline measurements. The results were expressed as fluorescence units per micromole of hydroxyproline content of each sample. Percent decrease in fluorescence was calculated as above. […] The tubes were autoclaved in a steam sterilizer at 250° F. for 3.5 hours. The samples were taken to dryness using a Savant Speed Vac concentrator with heat, and stored at 4° C. until assayed. The dried samples were rehydrated with 200 μL deionized water, and aliquots were assayed for their hydroxyproline content in a 96-well microtiter plate as described by […] et al. (1997).

[4] = biological target: T2, AGE cross-links in tail tendon collagen of diabetic rats; test: Total pepsin digestion assay, collagen-linked fluorescence; details: for Pepsin Digestion Assay (% decrease in fluorescence): relative to untreated collagen of diabetic rats
Method: For this study, diabetes was first induced in male Sprague-Dawley rats (Charles River, Wilmington, Mass.) weighing about 150-175 g by injection of streptozotocin (65 mg/kg, i.p.). […] Thirty-two weeks later, the rats are sacrificed and collagen was isolated from the tail tendon of diabetic and normal controls as described by Kochakian et al. (1996). Tail tendons were dissected free of adhering tissues, washed thoroughly in PBS containing protease inhibitors (1 mM each of EDTA, PMSF, iodoacetamide and benzamidine hydrochloride), patted dry onto a paper towel, rolled into a ball, freeze dried, and stored at -20° C. in sealed containers until used. Representative samples of tail tendon collagen were pulled from its bulk and were cut approximately 20-25 mm in size. […] Untreated control tubes include tail tendon collagen and PBS buffer only. The tubes were incubated at 37° C. for 24 hours. After incubation, the tubes were centrifuged at 10,000 rpm and the supernatants discarded. The collagen samples were rinsed with PBS, vortexed thoroughly, centrifuged briefly, and the supernatant discarded. This rinsing was repeated twice. On final rinse, the supernatant was discarded and the tubes inverted for one minute for the samples to air dry. These collagen samples were used immediately in the acid solubility and digestion studies. […] The clear supernatant containing digested collagen was collected and used for collagen-linked fluorescence. […] Fluorescence of the samples was quantified at 365 nm excitation and 418 nm emission. All fluorescence values were corrected for fluorescence of the pepsin in phosphate buffer and expressed as arbitrary units per micromoles of hydroxyproline content of the collagen sample. The hydroxyproline content of each collagen sample was measured following acid hydrolysis, using a microassay method as described ([…] et al., 1997). […] The tubes were autoclaved in a steam sterilizer at 250° F. for 3.5 hours. The samples were taken to dryness using a Savant Speed Vac concentrator with heat, and stored at 4° C. until assayed. The dried samples were rehydrated with 200 μL deionized water, and aliquots were assayed for their hydroxyproline content in a 96-well microtiter plate as described by […] et al. (1997).

T1 sequence (P02454 152-1207 limits assumed): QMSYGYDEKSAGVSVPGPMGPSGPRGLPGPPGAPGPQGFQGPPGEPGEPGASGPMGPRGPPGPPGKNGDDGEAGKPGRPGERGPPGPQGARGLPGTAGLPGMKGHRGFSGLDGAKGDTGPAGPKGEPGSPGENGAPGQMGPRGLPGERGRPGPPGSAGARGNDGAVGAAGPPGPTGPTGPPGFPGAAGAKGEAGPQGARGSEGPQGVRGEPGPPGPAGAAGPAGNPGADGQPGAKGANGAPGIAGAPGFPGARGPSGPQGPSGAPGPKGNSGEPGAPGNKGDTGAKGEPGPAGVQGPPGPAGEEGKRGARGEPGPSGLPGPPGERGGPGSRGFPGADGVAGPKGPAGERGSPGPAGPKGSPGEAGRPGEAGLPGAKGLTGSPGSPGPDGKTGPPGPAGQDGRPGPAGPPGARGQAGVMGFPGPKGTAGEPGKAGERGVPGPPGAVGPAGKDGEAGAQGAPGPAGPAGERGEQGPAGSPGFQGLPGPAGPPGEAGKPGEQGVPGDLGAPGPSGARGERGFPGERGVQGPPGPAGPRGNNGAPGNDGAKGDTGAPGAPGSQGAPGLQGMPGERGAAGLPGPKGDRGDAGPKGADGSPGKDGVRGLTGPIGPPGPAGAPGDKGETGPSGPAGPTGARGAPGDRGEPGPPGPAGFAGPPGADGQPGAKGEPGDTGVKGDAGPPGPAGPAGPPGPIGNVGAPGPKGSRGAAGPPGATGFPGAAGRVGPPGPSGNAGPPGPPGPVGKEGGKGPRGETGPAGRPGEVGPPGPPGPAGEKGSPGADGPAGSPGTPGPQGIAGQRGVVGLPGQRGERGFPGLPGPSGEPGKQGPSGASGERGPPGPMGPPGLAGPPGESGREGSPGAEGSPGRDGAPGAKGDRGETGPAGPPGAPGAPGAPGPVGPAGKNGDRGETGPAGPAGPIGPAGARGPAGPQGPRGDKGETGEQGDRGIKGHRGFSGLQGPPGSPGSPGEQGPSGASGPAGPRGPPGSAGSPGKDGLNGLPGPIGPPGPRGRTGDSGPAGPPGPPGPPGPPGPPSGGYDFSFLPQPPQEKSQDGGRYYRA
T1 sequence (P02466 86-1125 limits assumed): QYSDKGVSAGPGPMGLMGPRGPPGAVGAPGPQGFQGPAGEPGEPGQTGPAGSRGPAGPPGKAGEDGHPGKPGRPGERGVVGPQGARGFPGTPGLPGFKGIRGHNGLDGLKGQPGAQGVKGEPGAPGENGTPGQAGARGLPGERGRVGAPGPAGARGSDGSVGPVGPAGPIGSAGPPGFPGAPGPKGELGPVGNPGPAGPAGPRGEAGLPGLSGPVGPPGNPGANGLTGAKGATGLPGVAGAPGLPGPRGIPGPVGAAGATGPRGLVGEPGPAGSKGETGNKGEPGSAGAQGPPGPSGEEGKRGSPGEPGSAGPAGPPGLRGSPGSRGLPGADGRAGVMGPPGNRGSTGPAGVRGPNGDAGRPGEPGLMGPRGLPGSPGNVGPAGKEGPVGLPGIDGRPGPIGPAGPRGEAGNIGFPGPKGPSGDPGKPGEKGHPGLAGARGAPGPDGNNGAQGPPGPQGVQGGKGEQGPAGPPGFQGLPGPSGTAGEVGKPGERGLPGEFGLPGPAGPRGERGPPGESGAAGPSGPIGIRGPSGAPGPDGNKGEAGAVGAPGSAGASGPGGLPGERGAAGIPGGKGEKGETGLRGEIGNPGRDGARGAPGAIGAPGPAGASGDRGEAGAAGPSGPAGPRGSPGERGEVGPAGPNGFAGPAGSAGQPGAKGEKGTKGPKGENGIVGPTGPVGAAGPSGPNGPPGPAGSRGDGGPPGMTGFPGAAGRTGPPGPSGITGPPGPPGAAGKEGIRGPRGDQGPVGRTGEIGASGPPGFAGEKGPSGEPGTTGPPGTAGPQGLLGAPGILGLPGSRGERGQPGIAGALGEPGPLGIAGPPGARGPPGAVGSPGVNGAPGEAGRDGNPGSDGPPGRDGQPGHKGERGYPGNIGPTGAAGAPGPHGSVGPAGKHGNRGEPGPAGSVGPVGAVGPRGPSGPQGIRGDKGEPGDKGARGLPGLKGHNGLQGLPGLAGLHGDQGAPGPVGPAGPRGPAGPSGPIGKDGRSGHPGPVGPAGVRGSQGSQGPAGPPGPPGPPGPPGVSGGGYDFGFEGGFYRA
T2 sequence (P02454 152-1207 limits assumed): as the sequence (P02454 152-1207 limits assumed) above
T2 sequence (P02466 86-1125 limits assumed): as the sequence (P02466 86-1125 limits assumed) above

Overall AGE-breaking property, in words [1]	Collagen solubility in weak acid, in words ([2]; collagen of diabetic rats, P<0.05 for LR23, FIG. 2B)	AGE-linked fluorescence of collagen after papain digestion, in words ([3]; collagen of diabetic rats, P<0.05 for LR23, FIG. 4B)	AGE-linked fluorescence of collagen after pepsin digestion, in words ([4]; collagen of diabetic rats, P<0.05 for LR23, FIG. 3B)	Overall AGE-breaking property, in words ([1]; listed as metformin)	Compound	AGE-breaking activity (cleavage of cross-linked collagen-AGE-BSA), in words [1]	Acid Solubility Test (% increase in solubility) ([2]; 0.1 mM) [%]	Acid Solubility Test (% increase in solubility) ([2]; 1.0 mM) [%]	Acid Solubility Test (% increase in solubility) ([2]; 10 mM) [%]	Papain digestion Assay (% decrease in fluorescence) ([3]; 0.1 mM) [%]	Papain digestion Assay (% decrease in fluorescence) ([3]; 1.0 mM) [%]	Papain digestion Assay (% decrease in fluorescence) ([3]; 10 mM) [%]	Pepsin Digestion Assay (% decrease in fluorescence) ([4]; 0.1 mM) [%]	Pepsin Digestion Assay (% decrease in fluorescence) ([4]; 1.0 mM) [%]	Pepsin Digestion Assay (% decrease in fluorescence) ([4]; 10 mM) [%]	Concentration dependence of AGE-BSA-collagen crosslink breaking, in words [1]
–	–	–	–	–	4-[(3,5-dichlorophenylureidophenoxyisobutyryl]-4-aminobenzoic acid [LR99]	very effective AGE-breakers	1.6	7.3	16.0	23.5	35.9	63.6	9.8	16.1	12.6	–
most effective AGE-breakers	significantly increased solubility	reduced the AGE-linked fluorescence	reduced the AGE-linked fluorescence	–	CC(C)(Oc1ccc(NC(=O)Nc2cc(Cl)cc(Cl)c2)cc1)C(=O)NC1(C(=O)O)CCCCC1 [LR23, 4-(3,5-dichlorophenylureido)phenoxyisobutyryl-1-amidocyclohexane-1-carboxylic acid]	very effective AGE-breakers	18.3	19.4	32.7	16.7	25.9	47.2	7.3	15.5	18.7	more effective breakers at higher concentrations
moderate AGE-breaking properties	–	–	–	moderate AGE-breaker	CN(C)C(=N)NC(=N)N [Metformin, 1,1-dimethylbiguanide, reference compound]	–	–	–	–	–	–	–	–	–	–	more potent at lower concentrations; also recorded: highly effective at low concentrations
–	–	–	–	–	L-bis-[4-(4-chlorobenzamidophenoxyisobutyryl)cystine] [LR20]	very effective AGE-breakers	1.5	7.3	24.0	18.3	18.4	24.3	7.1	8.9	27.8	more effective breakers at higher concentrations
